Reference: patent publication US20230056994A1, “NECROPTOSIS MODULATORS, SCREENING METHODS AND PHARMACEUTICAL COMPOSITIONS” (NEURALIS SA, priority 2019, published 2023)
“Also recorded” adds a separate entry of the source.

Experiments:
[1] = system: phosphorylation state of MLKL in MCF7 cells; assay: Western blot of phospho-MLKL (Ser358) in MCF7 cells, necroptosis induced by TNF-alpha and z-VAD-fmk; type: cell-based; settings: then TNF a 10 ng/ml 20 hrs, z-VAD-fmk 10 μM, One-Way ANOVA
Description: (§1) MCF7 and HT29 cells were cultured in DMEM along with 10% FBS, 1% Penicillin-Streptomycin and 1% Glutamine. The cells were pre-treated with 0.1% DMSO or z-VAD-fmk (10 μM) to induce necroptosis (positive control). In order to evaluate the effect of candidate agents on the induced necroptosis, Necrostatin 1 (Nec-1 (10 μM)) or Estetrol (E4 (10^-7 M) was added to the cells for 1 hr and was further subjected to Tumor Necrosis Factor (TNF) a (10 ng/ml) treatment for 20 hrs. The cells were then washed, followed by isolation and quantification of the total protein. 20 μg of protein from each treatment group was used for SDS-PAGE separation (10% […] gel) and was then transferred to PVDF membrane via a transfer apparatus. Post transfer, the membranes were blocked with 5% milk and further washed with the wash buffer. The membranes were further incubated with anti-Phospho-MLKL (Ser358) Polyclonal Antibody; Cat No: PA5-105678 (Thermofisher Scientific) at a dilution of 1/1000. The membranes were then incubated with secondary antibody (anti-Rabbit IgG, HRP-linked antibody, Cell signaling, Cat No: 7074S) at a dilution of 1/1000 and visualized using Western Blot substrate (Western Lightning Plus-ECL, Perkin Elmer, NEL104001EA) as per manufacturer's protocols. The results are shown in FIGS. 6 and 7, respectively for MCF7 and HT29 cells.

[2] = system: phosphorylation state of MLKL in HT29 cells; assay: Western blot of phospho-MLKL (Ser358) in HT29 cells, necroptosis induced by TNF-alpha and z-VAD-fmk; type: cell-based; settings: then TNF a 10 ng/ml 20 hrs, z-VAD-fmk 10 μM, One-Way ANOVA
Description: as §1

[3] = E4 10^-7 M for 1 hr, listed as E4
[4] = Nec-1 10 μM for 1 hr, listed as Nec 1
[5] = Nec-1 10 μM for 1 hr, listed as Necrostatin 1

| SMILES | reduction of MLKL phosphorylation versus TNF-alpha + z-VAD-fmk induced cells ([1]; E4 10^-7 M for 1 hr) | reduction of MLKL phosphorylation versus TNF-alpha + z-VAD-fmk induced cells [1, 3] | reduction of MLKL phosphorylation versus TNF-alpha + z-VAD-fmk induced cells ([2]; E4 10^-7 M for 1 hr) | reduction of MLKL phosphorylation versus TNF-alpha + z-VAD-fmk induced cells [2, 3] | reduction of MLKL phosphorylation versus TNF-alpha + z-VAD-fmk induced cells [1, 4] | reduction of MLKL phosphorylation versus TNF-alpha + z-VAD-fmk induced cells [1, 5] | reduction of MLKL phosphorylation versus TNF-alpha + z-VAD-fmk induced cells [2, 4] | reduction of MLKL phosphorylation versus TNF-alpha + z-VAD-fmk induced cells [2, 5] |
| --- | --- | --- | --- | --- | --- | --- | --- | --- |
| C[C@]12CC[C@@H]3c4ccc(O)cc4CC[C@H]3[C@@H]1[C@@H](O)[C@@H](O)[C@@H]2O [Estetrol] | decrease of phosphorylation of MLKL | statistically relevant (**p<0.01) | decrease of phosphorylation of MLKL | statistically relevant (**p<0.01) | – | – | – | – |
| CN1C(=O)C(Cc2c[nH]c3ccccc23)NC1=S (centres unmarked) [Nec-1, Necrostatin-1] | – | – | – | – | statistically significant (*p<0.05); also recorded: statistically relevant (*p<0.05) | decrease of phosphorylation of MLKL | statistically Non-Significant (NS) | decrease of phosphorylation of MLKL |
